Laboratory results as given in US20230091047A1 (priority 2019, published 2023).
Read-outs that look alike come from different tables or passages of the source.

How the values were obtained:
[1] = test system: HBV (HepG2.117 cell line, inducibly HBV producing); experiment: Anti-HBV activity: intracellular HBV DNA by real-time PCR in HepG2.117 cells after 3 days of treatment; format: cell-based, hepatitis B virus
Outline: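 Tet-off HepG2.117; HBV replication induced (no doxycycline); serial compound dilutions, 3 d; intracellular HBV DNA by real-time PCR, HBV-specific primers/probe.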

in vitro = format: cell-based; conditions: human, HepG2 or HepG2.117 cells, ATPlite, mean value
Outline: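 Luminescent ATP quantitation served as the viability endpoint following a 3- or 4-day incubation with test compounds.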

[2] = Hepatitis B virus, HepG2.117, 72 h, HepG2.117 cells, 3 days of treatment, intracellular HBV DNA by real-time PCR; mean value; read-out: EC50 (μM, mean value)
[3] = 3-days incubation (unmarked values)
[4] = Hepatitis B virus, HepG2.117, 72 h, HepG2.117 cells, intracellular HBV DNA by real-time PCR, 3 days of treatment, mean value; read-out: EC50 (μM, mean value)
[5] = 3-days incubation (not marked with *)

SMILES | EC50 [1, 2] [µM] | CC50 at 3 days (in vitro; [3]) [µM] | EC50 [1, 4] [µM] | CC50 at 3 days (in vitro; [5]) [µM] | CC50 at 4 days (in vitro; 4-days incubation (values marked with *)) [µM]
CNC(=O)c1ccc(-n2c(N3CC[C@@H]3C)nc3c(c2=O)C[C@@H](C)N(C(=O)c2ccc(Cl)c(Cl)c2)C3)cc1 (single isomer, unassigned) [Compound C312, 4-[(6R)-7-(3,4-dichlorobenzoyl)-6-methyl-2-[(2*S)-2-methylazetidin-1-yl]-4-oxo-5,6,7,8-tetrahydropyrido[3,4-d]pyrimidin-3(4H)-yl]-N-methylbenzamide] | 0.26 | > 50 |  |  | 
CC(C)Nc1nc2c(c(=O)n1-c1ccc(C(=O)O)cc1)C[C@@H](C)N(C(=O)c1ccc(Cl)c(Cl)c1)C2 [Compound I70, (R)-4-(7-(3,4-dichlorobenzoyl)-2-(isopropylamino)-6-methyl-4-oxo-5,6,7,8-tetrahydropyrido[3,4-d]pyrimidin-3(4H)-yl)benzoic acid] |  |  | 3.6 | > 50 | 
CC(C)Nc1nc2c(c(=O)n1-c1ccc(-n3cccn3)cc1)C[C@@H](C)N(C(=O)c1ccc(Cl)c(Cl)c1)C2 [Compound C166, (6R)-7-(3,4-dichlorobenzoyl)-6-methyl-2-[(propan-2-yl)amino]-3-[4-(1H-pyrazol-1-yl)phenyl]-5,6,7,8-tetrahydropyrido[3,4-d]pyrimidin-4(3H)-one] | 0.11 | > 50 |  |  | 
CNC(=O)[C@H]1CC[C@H](n2c(N[C@@H](C)c3ccc(C(F)(F)F)cc3)nc3c(c2=O)C[C@@H](C)N(C(=O)c2ccc(Cl)c(Cl)c2)C3)CC1 [Compound C640] |  |  | 0.07 | 5.2 | 
CNC(=O)c1ccc(-n2c(N[C@@H](C)c3ccc(F)c(F)c3)nc3c(c2=O)C[C@@H](C)N(C(=O)c2ccc(Cl)c(Cl)c2)C3)cc1 (single isomer, unassigned) [Compound C417b] |  |  | 0.06 | 7.3 | 
COc1ccc(CNc2nc3c(c(=O)n2-c2cccnc2)CCN(C(=O)c2ccc(Cl)c(Cl)c2)C3)cc1 [Compound C68, 7-(3,4-dichlorobenzoyl)-2-{[(4-methoxyphenyl)methyl]amino}-3-(pyridin-3-yl)-5,6,7,8-tetrahydropyrido[3,4-d]pyrimidin-4(3H)-one] | 0.66 | 22.4 |  |  | 
COC(=O)[C@H]1CC[C@H](n2c(NC(C)C)nc3c(c2=O)C[C@@H](C)N(C(=O)c2ccc(Cl)c(Cl)c2)C3)CC1 [Compound C370] | 0.85 | > 50 |  |  | 
CC(C)N(CCO)c1nc2c(c(=O)[nH]1)CCN(C(=O)c1ccc(Cl)c(Cl)c1)C2 [Compound C97, 7-(3,4-dichlorobenzoyl)-2-[(2-hydroxyethyl)(propan-2-yl)amino]-5,6,7,8-tetrahydropyrido[3,4-d]pyrimidin-4(3H)-one] | 3.22 | > 50 |  |  | 
CNC(=O)c1ccc(-n2c(N[C@@H](C)CO)nc3c(c2=O)C[C@@H](C)N(C(=O)c2ccc(Cl)c(Cl)c2)C3)cc1 [Compound C272, 4-[(6R)-7-(3,4-dichlorobenzoyl)-2-{[(2S)-1-hydroxypropan-2-yl]amino}-6-methyl-4-oxo-5,6,7,8-tetrahydropyrido[3,4-d]pyrimidin-3(4H)-yl]-N-methylbenzamide] | 2.39 | > 50 |  |  | 
CNC(=O)c1ncc(-n2c(O)nc3c(c2=O)C[C@@H](C)N(C(=O)c2ccc(Cl)c(Cl)c2)C3)n1C [Compound C626, R-5-(7-(3,4-dichlorobenzoyl)-2-hydroxy-6-methyl-4-oxo-5,6,7,8-tetrahydropyrido[3,4-d]pyrimidin-3(4H)-yl)-N,1-dimethyl-1H-imidazole-2-carboxamide] |  |  | > 2.5 | > 50 | 
Cc1csc(-c2ccc(-n3c(NC(C)C)nc4c(c3=O)C[C@@H](C)N(C(=O)c3ccc(Cl)c(Cl)c3)C4)cc2)n1 [Compound C247, (6R)-7-(3,4-dichlorobenzoyl)-6-methyl-3-[4-(4-methyl-1,3-thiazol-2-yl)phenyl]-2-[(propan-2-yl)amino]-5,6,7,8-tetrahydropyrido[3,4-d]pyrimidin-4(3H)-one] | 0.12 | > 50 |  |  | 
CNC(=O)c1ccc(-n2c(NC(C)C)nc3c(c2=O)C[C@@H](C)N(C(=O)c2ccc(Cl)cc2C(F)(F)F)C3)cc1 [Compound C648] |  |  | 0.22 | > 50 | 
CNC(=O)c1ccc(-n2c(N[C@@H](CC3CC3)c3ccccc3)nc3c(c2=O)C[C@@H](C)N(C(=O)c2ccc(Cl)c(Cl)c2)C3)cc1 (single isomer, unassigned) [Compound C437b] |  |  | 0.91 | 29.4 | 
CNC(=O)c1cc(-n2c(NC(C)C)nc3c(c2=O)C[C@@H](C)N(C(=O)c2ccc(Cl)c(C(F)F)c2)C3)n(C)n1 [Compound C672] |  |  | 0.09 | > 50 | 
CNC(=O)c1ccc(-n2c(NC(C)(C)c3ccccc3)nc3c(c2=O)C[C@@H](C)N(C(=O)c2ccc(Cl)c(Cl)c2)C3)cc1 [Compound C407] |  |  | 0.15 | 18 | 
CNC(=O)c1ccc(-n2c(N(C)C34CC(C3)C4)nc3c(c2=O)C[C@@H](C)N(C(=O)c2ccc(Cl)c(Cl)c2)C3)cc1 [Compound C345, 4-[(6R)-2-[(bicyclo[1.1.1]pentan-1-yl)(methyl)amino]-7-(3,4-dichlorobenzoyl)-6-methyl-4-oxo-5,6,7,8-tetrahydropyrido[3,4-d]pyrimidin-3(4H)-yl]-N-methylbenzamide] | 0.32 | 21.6 |  |  | 
CNC(=O)c1ccc(-n2c(NC(C)c3ccccc3OC(F)F)nc3c(c2=O)C[C@@H](C)N(C(=O)c2ccc(Cl)c(Cl)c2)C3)cc1 (stereo partly shown) [Compound C438] |  |  | 0.4 | 31.2 | 
CC(C)Nc1nc2c(c(=O)n1-c1ccc(S(=O)(=O)Nc3ccccn3)cc1)C[C@@H](C)N(C(=O)c1ccc(Cl)c(Cl)c1)C2 [Compound C400] |  |  | 1.15 | > 50 | 
COc1ccccc1-n1c(NCc2ccccc2)nc2c(c1=O)CCN(C(=O)c1ccc(Cl)c(Cl)c1)C2 [Compound C10, 2-(benzylamino)-7-(3,4-dichlorobenzoyl)-3-(2-methoxyphenyl)-5,6,7,8-tetrahydropyrido[3,4-d]pyrimidin-4(3H)-one] | 6.21 |  |  |  | > 50
CC(C)Nc1nc2c(c(=O)n1-c1ccc(S(C)(=O)=O)cc1)CCN(C(=O)c1cc3cc(F)c(F)cc3[nH]1)C2 [Compound C165, 7-(5,6-difluoro-1H-indole-2-carbonyl)-3-[4-(methanesulfonyl)phenyl]-2-[(propan-2-yl)amino]-5,6,7,8-tetrahydropyrido[3,4-d]pyrimidin-4(3H)-one] | 0.05 | > 50 |  |  | 
COCCn1c(NCc2ccc(OC)cc2)nc2c(c1=O)CCN(C(=O)c1ccc(Cl)c(Cl)c1)C2 [Compound C51, 7-(3,4-dichlorobenzoyl)-3-(2-methoxyethyl)-2-{[(4-methoxyphenyl)methyl]amino}-5,6,7,8-tetrahydropyrido[3,4-d]pyrimidin-4(3H)-one] | 4.35 | 36.6 |  |  | 
CNC(=O)c1cnc(-n2c(NC(C)C)nc3c(c2=O)C[C@@H](C)N(C(=O)c2ccc(Cl)c(Cl)c2)C3)cn1 [Compound C288, 5-[(6R)-7-(3,4-dichlorobenzoyl)-6-methyl-4-oxo-2-[(propan-2-yl)amino]-5,6,7,8-tetrahydropyrido[3,4-d]pyrimidin-3(4H)-yl]-N-methylpyrazine-2-carboxamide] | 0.07 | > 50 |  |  | 
CC(C)Nc1nc2c(c(=O)n1-c1ccc(S(C)(=O)=O)cc1)CCN(C(=O)c1ccn3cncc3c1)C2 [Compound C361] | > 50 | > 50 |  |  | 
